Experimental data as given in US20110081316A1, “PYRAZOLE INHIBITORS OF PHOSPHATIDYLINOSITOL 3-KINASE” (VERTEX PHARMACEUTICALS INCORPORATED, priority 2009, published 2011).

What follows are compounds tested against PI3K-gamma (Homo sapiens, UniProt P48736) (assay: PI3K Inhibition Assay (33P-ATP, PI(4,5)P2 substrate, filter plate scintillation counting)). Settings: 2 nM enzyme, 3 μM ATP, 30 μM PI(4,5)P2, 30 min at 25° C.; competitive tight binding Ki fit.
Type: biochemical
Experimental: Using a Biomek FX from Beckman Coulter, 1.5 μL of each of ten 2.5-fold serial dilutions of a compound of the invention in 100% DMSO was added to an individual well (hereafter, “test well”) in a 96 well polystyrene plate [Corning, Costar Item No. 3697]. One test well also contained 1.5 μL of DMSO with no compound. […] Using a Titertek Multidrop, 50 μL of Reaction Mix [100 mM HEPES pH 7.5, 50 mM NaCl, 10 mM DTT, 0.2 mg/mL BSA, 60 μM phosphatidylinositol(4,5)bisphosphate diC16 (PI(4,5)P2; Avanti Polar Lipids, Cat. No. 840046P) and PI3K isoform of interest (see Table 3 for isoform concentrations)] was added to each well. To initiate the reaction, 50 μL of ATP Mix [20 mM MgCl2, 6 μM ATP (100 μCi/μmmole ^33P-ATP)] was added each well, followed by incubating the wells for 30 min. at 25° C. Final concentrations in each well were 50 mM HEPES 7.5, 10 mM MgCl2, 25 mM NaCl, 5 mM DTT, 0.1 mg/mL BSA, 30 μM PI(4,5)P2, 3 μM ATP, and the PI3K isoform of interest (see Table 3). Final compound concentrations in each well ranged from 10 μM to 1 nM. [table] After incubation, the reactions in each well were quenched by addition of 50 μL of stop solution [30% TCA/Water, 10 mM ATP]. Each quenched reaction mixture was then transferred to a 96 well glass fiber filter plate [Corning, Costar Item No. 3511]. The plate was vacuum-filtered and washed three times with 150 μL of 5% TCA/water in a modified Bio-Tek Instruments ELX-405 Auto Plate Washer. 50 μL of scintillation fluid was added to each well and the plate read on a Perkin-Elmer TopCount™ NXT liquid scintillation counter to obtain ^33P-counts representing inhibition values. The value for the background well was subtracted from the value obtained for each test well and the data were fit to the competitive tight binding Ki equation described by Morrison and Stone, Comments Mol. Cell. Biophys. 2: 347-368, 1985.

Chain of PI3K-gamma (P48736 whole entry, species assumed): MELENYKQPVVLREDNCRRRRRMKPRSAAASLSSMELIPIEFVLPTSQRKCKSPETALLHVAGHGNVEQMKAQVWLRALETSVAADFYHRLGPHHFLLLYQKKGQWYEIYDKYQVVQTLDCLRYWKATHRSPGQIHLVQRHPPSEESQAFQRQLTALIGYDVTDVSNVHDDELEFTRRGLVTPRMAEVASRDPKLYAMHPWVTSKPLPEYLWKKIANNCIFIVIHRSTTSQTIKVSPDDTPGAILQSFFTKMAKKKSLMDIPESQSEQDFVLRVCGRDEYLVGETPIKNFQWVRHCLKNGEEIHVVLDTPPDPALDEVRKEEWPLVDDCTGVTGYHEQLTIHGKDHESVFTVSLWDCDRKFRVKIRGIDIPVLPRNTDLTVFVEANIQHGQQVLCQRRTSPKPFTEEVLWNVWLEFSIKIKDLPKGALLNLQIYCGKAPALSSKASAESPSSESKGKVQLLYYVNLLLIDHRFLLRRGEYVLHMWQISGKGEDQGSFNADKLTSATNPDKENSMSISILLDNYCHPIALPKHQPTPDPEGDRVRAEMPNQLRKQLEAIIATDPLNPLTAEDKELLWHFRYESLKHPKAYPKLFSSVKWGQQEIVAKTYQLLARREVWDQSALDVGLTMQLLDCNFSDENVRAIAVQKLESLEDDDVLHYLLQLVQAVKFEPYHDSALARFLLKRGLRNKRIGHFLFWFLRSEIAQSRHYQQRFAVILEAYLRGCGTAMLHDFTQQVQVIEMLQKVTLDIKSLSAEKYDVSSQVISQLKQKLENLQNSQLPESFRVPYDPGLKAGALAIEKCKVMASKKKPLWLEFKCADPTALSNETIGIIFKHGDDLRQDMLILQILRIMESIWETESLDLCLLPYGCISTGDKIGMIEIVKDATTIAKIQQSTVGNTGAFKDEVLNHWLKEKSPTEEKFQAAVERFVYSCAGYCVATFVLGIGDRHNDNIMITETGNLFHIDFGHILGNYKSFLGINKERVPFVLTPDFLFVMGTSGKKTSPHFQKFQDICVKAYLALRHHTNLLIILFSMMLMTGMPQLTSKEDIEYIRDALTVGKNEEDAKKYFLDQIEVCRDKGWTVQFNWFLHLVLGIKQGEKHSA

| Ki | SMILES |
| --- | --- |
| < 100 nM | Cn1nc(NC(=O)NCCOCC2CC2)cc1C#Cc1ccc2nccnc2c1 [Compound 9] |
| < 100 nM | COc1cc(C#Cc2cc(NC(=O)NC[C@@H](C)OCC3CC3)nn2C)cnc1OC [Compound 11] |
| < 100 nM | C[C@@H](CNC(=O)Nc1cc(C#Cc2ccc3nccnc3c2)n(C)n1)OCC1CC1 [Compound 12] |
| < 100 nM | COc1cc(C#Cc2cc(NC(=O)NC[C@H](C)OCC3CC3)nn2C)cnc1OC [Compound 14] |

Further lines, the compound ahead of its results:

| SMILES | Ki |
| --- | --- |
| Cn1nc(NC(=O)NCCc2cn(CC(F)F)cn2)cc1C#Cc1cccnc1 [Compound 3] | < 100 nM |
| COc1cncc(C#Cc2cc(NC(=O)NCCOCC3CC3)nn2C)c1 [Compound 6] | < 100 nM |
| Cn1nc(NC(=O)NCCOCC2CC2)cc1C#Cc1ccc(N)nc1 [Compound 7] | < 100 nM |
| Cn1nc(NC(=O)NCCOCC2CC2)cc1C#Cc1cccnc1Cl [Compound 8] | < 100 nM |
